Test results reported in patent publication EP0394122A2, “Use of tetracyclines to manufacture a medicament for the treatment and prevention of AIDS” (priority 1989, dated 1990).

What was measured:
virus HIV (LAV-1-BRU) = assay: Protection against the cytopathogenic effect of HIV in infected CEM clone 13 cells (MTT viability); assay type: cell-based; settings: day 7
Experimental: (§1) Le test est réalisé sur la lignée lymphoblastoïde CEM clone 13. Dans une microplaque de 96 puits on dépose 25 µl/puits d'une solution de produit à tester ou de tampon phosphate isotonique (TPI) dans le cas des contrôles. Les produits sont étudiés à différentes concentrations (souvent 8), à raison de 4 puits par concentration. On ajoute alors 125 µl d'une suspension de cellules CEM dans le milieu RPMI contenant 10 % de sérum de veau foetal, 40 U/ml de pénicilline, 40 µg/ml de streptomycine et 5 µg/ml de polybrène (3500 cellules par puits) et les microplaques sont incubées une heure à 37°C, sous une atmosphère contenant 5 % de gaz carbonique. Pour chaque concentration, l'essai est partagé en 2 parties : une partie sur cellules infectées, pour la détermination de l'activité antivirale et l'autre partie sur cellules non infectées, pour déterminer la cytotoxicité des produits. On infecte alors la première série avec HIV (100 µl par puit d'une suspension de virus LAV-1-BRU contenant 200-300 TCID50) tandis que l'autre série reçoit 100 µl de milieu RPMI tel que défini précédemment. Au bout de 7 jours d'incubation, 175 µl de surnageant sont prélevés et rejetés. La viabilité cellulaire est déterminée selon une modification de la technique décrite par R. Pauwels et coll., J. Virol. Meth., 20, 309-321 (1988).
(§2) Les puits, contenant encore les cellules (infectées ou non infectées), reçoivent 10 µl d'une solution de MTT (méthylthiazoletétrazolium) à 5 mg/ml dans du tampon phosphate isotonique. Pendant une période d'incubation de 4 heures, le MTT est converti en un sel de formazan (bleu) à l'intérieur des cellules vivantes et proportionnellement à leur nombre, alors que rien n'apparaît dans les puits ne contenant plus que des cellules mortes. On ajoute alors 120 µl d'isopropanol (contenant 0,04 mole/l d'acide chlorhydrique) et les microplaques sont agitées jusqu'à la solubilisation du bleu de formazan. L'absorption à 540 nm est lue avec un lecteur automatique de réactions ELISA en microplaques.
(§3) Pour les essais de plus longue durée, on procède comme décrit précédemment jusqu'au jour 7. A ce moment, 100 µl de cellules sont prélevés pour mesurer la proportion de cellules vivantes et le restant est remis en culture avec du milieu frais contenant les produits aux mêmes concentrations. Cette opération est répétée tous les 4 jours.

[1] = system: lignée lymphoblastoïde CEM clone 13; assay: Cytotoxicity on non-infected CEM clone 13 cells (MTT viability); assay type: cell-based, humaines; settings: day 7
Experimental: as §1, with “Dans” for “Le test est réalisé sur la lignée lymphoblastoïde CEM clone 13. Dans”, “Virol.” for “Virol. Meth., 20, 309-321 (1988).”
as §2, §3

| Molecule | Cellules infectées Densité optique (virus HIV (LAV-1-BRU); 0,01 µg/ml) | Cellules infectées Densité optique (virus HIV (LAV-1-BRU); 0,04 µg/ml) | Cellules infectées Densité optique (virus HIV (LAV-1-BRU); 0,12 µg/ml) | Cellules infectées Densité optique (virus HIV (LAV-1-BRU); 0,37 µg/ml) | Cellules infectées Densité optique (virus HIV (LAV-1-BRU); 10 µg/ml) | Cellules infectées Densité optique (virus HIV (LAV-1-BRU); 30 µg/ml) | Cellules infectées Densité optique (virus HIV (LAV-1-BRU); 1,11 µg/ml) | Cellules infectées Densité optique (virus HIV (LAV-1-BRU); 3,33 µg/ml) | Cellules non infectées Densité optique ([1]; 0,01 µg/ml) | Cellules non infectées Densité optique ([1]; 0,04 µg/ml) | Cellules non infectées Densité optique ([1]; 0,12 µg/ml) | Cellules non infectées Densité optique ([1]; 0,37 µg/ml) | Cellules non infectées Densité optique ([1]; 10 µg/ml) | Cellules non infectées Densité optique ([1]; 30 µg/ml) | Cellules non infectées Densité optique ([1]; 1,11 µg/ml) | Cellules non infectées Densité optique ([1]; 3,33 µg/ml) | also measured |
| --- | --- | --- | --- | --- | --- | --- | --- | --- | --- | --- | --- | --- | --- | --- | --- | --- | --- |
| CN(C)C1C(=O)C(C(N)=O)=C(O)C2(O)C(=O)C3=C(O)c4c(O)cccc4C(C)(O)C3CC12 (stereo not drawn) [Exemple 1, tétracycline] |  |  |  |  |  |  |  |  |  |  |  |  |  |  |  |  | Cellules infectées Densité optique (virus HIV (LAV-1-BRU); 0,03 µg/ml): 0,350; Cellules infectées Densité optique (virus HIV (LAV-1-BRU); 0,08 µg/ml): 0,350; Cellules infectées Densité optique (virus HIV (LAV-1-BRU); 0,25 µg/ml): 0,340; Cellules infectées Densité optique (virus HIV (LAV-1-BRU); 0,74 µg/ml): 0,420; Cellules infectées Densité optique (virus HIV (LAV-1-BRU); 20 µg/ml): 0,400; Cellules infectées Densité optique (virus HIV (LAV-1-BRU); 60 µg/ml): 0,1; Cellules infectées Densité optique (virus HIV (LAV-1-BRU); 2,22 µg/ml): 0,510; Cellules infectées Densité optique (virus HIV (LAV-1-BRU); 6,67 µg/ml): 0,620; Cellules non infectées Densité optique ([1]; 0,03 µg/ml): 1,025; Cellules non infectées Densité optique ([1]; 0,08 µg/ml): 1,080; Cellules non infectées Densité optique ([1]; 0,25 µg/ml): 1,050; Cellules non infectées Densité optique ([1]; 0,74 µg/ml): 1,100; Cellules non infectées Densité optique ([1]; 20 µg/ml): 0,460; Cellules non infectées Densité optique ([1]; 60 µg/ml): 0,1; Cellules non infectées Densité optique ([1]; 2,22 µg/ml): 1,040; Cellules non infectées Densité optique ([1]; 6,67 µg/ml): 0,900 |
| C=C1c2cccc(O)c2C(O)=C2C(=O)C3(O)C(O)=C(C(N)=O)C(=O)C(N(C)C)C3C(O)C12 (stereo not drawn) [Exemple 3, métacycline] | 0,570 | 0,640 | 0,680 | 0,730 | 0,770 | 0,1 | 0,780 | 1,060 | 1,100 | 1,380 | 1,300 | 1,230 | 0,960 | 0,1 | 1,180 | 1,320 |  |
| lymecycline [Exemple 4] | 0,75 | 1,25 | 1,21 | 1,20 | 1,55 | 1,05 | 1,28 | 1,40 | 1,75 | 1,80 | 1,90 | 1,75 | 1,85 | 1,05 | 1,80 | 1,85 |  |
